From patent US8084467B2, “Pyrazole derivatives as cannabinoid receptor antagonists” (University of Connecticut, priority 2004, dated 2011)
“And” between values parts separate entries of the source, which are not always exact repeats. Equal values may be shown once. Read-outs that look alike come from different tables or passages of the source.

Columns and labels:
CB2 receptor = target: T1, CB2 receptor (Mus musculus, UniProt P47936); experiment: CB2 receptor binding, mouse spleen membranes, same manner as the CB1 binding assay; settings: for Ki: [3H] CP-55,940; for selectivity CB2: ratio of CB1 Ki to CB2 Ki
T1 construct: membranes were prepared from frozen mouse spleen; from tissue; host or cells: mouse spleen
Protocol: Some of the inventive analogs were tested for CB2 receptor binding affinity and for CB1 receptor affinity (to determine selectivity). […] The lower the Ki value the higher the binding affinity.
(§1) The treated membranes were subsequently used in the binding assay described below. Approximately 30 μg of membranes were incubated in silanized 96-well microtiter plate with TME containing 0.1% essentially fatty acid-free bovine serum albumin (BSA), 0.8 nM [^3H] […] Radioactivity was detected using MicroScint 20 scintillation cocktail added directly to the dried filterplates, and the filterplates were counted using a Packard Instruments Top-Count. […] Data collected from three independent experiments performed with duplicate determinations was normalized between 100% and 0% specific binding for [^3H] […] The normalized data was analyzed using a 4-parameter nonlinear logistic equation to yield IC50 values.
Silanized centrifuge tubes were used throughout to minimize receptor loss due to adsorption. The CB2 binding assay was conducted in the same manner as for the CB1 binding assay. The binding affinities (Ki) were also expressed in nanomoles (nM).

CB1 cannabinoid receptor = target: T2, CB1 cannabinoid receptor (Rattus norvegicus, UniProt P20272); experiment: CB1 receptor binding, rat forebrain membranes, [3H] CP-55,940 displacement; settings: for Ki: 0.8 nM [3H] CP-55,940; for selectivity CB1: ratio of CB2 Ki to CB1 Ki
T2 construct: membranes were prepared from rat forebrain membranes; from tissue; host or cells: rat forebrain
Protocol: Some of the inventive analogs were tested for CB2 receptor binding affinity and for CB1 receptor affinity (to determine selectivity). […] The lower the Ki value the higher the binding affinity. […]
Membranes, previously frozen at −80° C., were thawed on ice. To the stirred suspension was added three volumes of TME (25 mM Tris-HCl buffer, 5 mM MgCl2 and 1 mM EDTA) at a pH 7.4. The suspension was incubated at 4° C. for 30 min. At the end of the incubation, the membranes were pelleted and washed three times with TME.
as §1

[1] = mouse spleen membranes, read-out: affinities Ki CB2
[2] = rat forebrain membranes, read-out: affinities Ki CB1
[3] = affinities Ki CB2, mouse spleen membranes
[4] = affinities Ki CB1, rat forebrain membranes

T1 sequence (P47936 whole entry): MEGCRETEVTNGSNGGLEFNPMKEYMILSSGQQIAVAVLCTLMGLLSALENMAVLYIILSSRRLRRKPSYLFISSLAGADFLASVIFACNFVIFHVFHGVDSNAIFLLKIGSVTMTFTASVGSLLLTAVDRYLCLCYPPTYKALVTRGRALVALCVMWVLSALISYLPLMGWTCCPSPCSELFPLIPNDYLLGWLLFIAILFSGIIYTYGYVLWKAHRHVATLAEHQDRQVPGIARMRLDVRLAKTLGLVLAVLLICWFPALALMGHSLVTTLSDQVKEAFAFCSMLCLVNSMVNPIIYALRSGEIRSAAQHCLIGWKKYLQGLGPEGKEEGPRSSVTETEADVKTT
T2 sequence (P20272 whole entry): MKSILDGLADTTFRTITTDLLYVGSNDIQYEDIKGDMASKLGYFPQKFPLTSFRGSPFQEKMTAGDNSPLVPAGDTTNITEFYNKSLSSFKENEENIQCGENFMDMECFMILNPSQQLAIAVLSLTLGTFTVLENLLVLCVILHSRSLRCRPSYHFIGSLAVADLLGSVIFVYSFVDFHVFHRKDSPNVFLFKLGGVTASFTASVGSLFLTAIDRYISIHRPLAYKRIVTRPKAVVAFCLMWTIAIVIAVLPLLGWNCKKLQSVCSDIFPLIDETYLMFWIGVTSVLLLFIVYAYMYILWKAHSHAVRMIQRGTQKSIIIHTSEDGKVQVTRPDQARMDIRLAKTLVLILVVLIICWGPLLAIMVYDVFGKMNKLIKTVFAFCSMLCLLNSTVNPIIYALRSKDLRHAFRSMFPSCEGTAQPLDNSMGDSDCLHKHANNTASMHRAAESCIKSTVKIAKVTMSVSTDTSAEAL

Row | SMILES | Ki (CB2 receptor; [1]) [nM] | Ki (CB1 cannabinoid receptor; [2]) [nM] | selectivity CB1 (CB1 cannabinoid receptor) | Ki (CB2 receptor; [3]) | selectivity CB2 (CB2 receptor) | Ki (CB1 cannabinoid receptor; [4])
1 | Cc1c(C(=O)NN2CCCCC2)nn(-c2ccc(Cl)cc2Cl)c1-c1ccc(-c2ccc(Cl)cc2)cc1 [Compound 1-2] | 1590 | 5.8 | 274 | – | – | –
2 | O=C(Nc1nn(-c2ccc(Cl)cc2Cl)c(-c2ccc(Br)cc2)c1CO)NC1CCCCC1 [Compound 2-19] | 4920 | 9 | 546.7 | – | – | –
3 | CNCc1c(C(=O)NC2CCCCC2)nn(-c2ccc(Cl)cc2Cl)c1-c1ccc(Br)cc1 [Compound 1-15] | 397 | 172 | 2.3 | – | – | –
4 | Cn1nnc(-c2ccc(-c3c(CO)c(C(=O)NN4CCCCC4)nn3-c3ccc(Cl)cc3Cl)cc2)n1 [Compound 2-6] | 2170 | 18 | 120.5 | – | – | –
5 | COCc1c(C(=O)NC2CCCCC2)nn(-c2ccc(Cl)cc2Cl)c1-c1ccc(-c2cccnc2)cc1 [Compound 1-18] | 646 | 62 | 10.4 | – | – | –
6 | Cc1c(C(=O)NCC23CC4CC(CC(C4)C2)C3)nn(CCCCCCl)c1-c1ccccc1 [Compound 4-5] | – | – | – | 6.65 nM and 6.6 nM | 3 | 19.8 nM and 20 nM
7 | O=C(NC1CCCCC1)c1nn(-c2ccc(Cl)cc2Cl)c(-c2ccc(Br)cc2)c1CO [Compound 3-18] | 2120 | 6 | 353.3 | – | – | –
8 | O=C(NC1CCCCC1)c1nn(-c2ccc(Cl)cc2Cl)c(-c2ccc(Br)cc2)c1CBr [Compound 3-17] | 3480 | 46 | 75.5 | – | – | –
9 | O=C(NN1CCCCC1)c1nn(-c2ccc(Cl)cc2Cl)c(-c2ccc(Br)cc2)c1CO [Compound 3-3] | – | – | 10.6 | 490 nM | – | 46 nM
10 | Cc1c(C(=O)NN2CCCCC2)nn(-c2ccc(Cl)cc2Cl)c1-c1ccc(C#N)cc1 [Compound 3-23] | 4690 | 22 | 213.3 | – | – | –
11 | CN(C(=O)c1nn(-c2ccc(Cl)cc2Cl)c(-c2ccc(-c3nnnn3C)cc2)c1CO)C1CCCCC1 [Compound 2-17] | 1410 | 1080 | 1.3 | – | – | –
12 | CN(C(=O)c1nn(-c2ccc(Cl)cc2Cl)c(-c2ccc(I)cc2)c1CO)C1CCCCC1 [Compound 3-2] | – | – | 29.3 | 528 nM | – | 18 nM
13 | Cc1c(CCC2CCCCC2)nn(-c2ccc(Cl)cc2Cl)c1-c1ccc(Br)cc1 [Compound 1-27] | 26400 | 1040 | 25.3 | – | – | –
14 | Cc1c(C(=O)N(C)C2CCCCC2)nn(-c2ccc(Cl)cc2Cl)c1-c1ccc(-c2nnn(C)n2)cc1 [Compound 2-15] | 551 | 105 | 5.2 | – | – | –
15 | Cc1c(C(=O)N(C)C2CCCCC2)nn(-c2ccc(Cl)cc2Cl)c1-c1ccc(C#N)cc1 [Compound 3-15] | 10800 | 50 | 216.5 | – | – | –
16 | Cc1c(C(=O)NN2CCCCC2)nn(-c2ccc(Cl)cc2Cl)c1-c1ccc(-c2nnn(C)n2)cc1 [Compound 2-3] | 517 | 6 | 86.2 | – | – | –
17 | Cc1c(C(=O)NC23CC4CC(CC(C4)C2)C3)nn(CCCCCCl)c1-c1ccccc1 [Compound 4-2] | – | – | – | 0.704 nM and 0.8 nM | 1.8 | 1.42 nM and 1.4 nM
18 | Cc1c(C(=O)NN2CCCCC2)nn(-c2ccc(Cl)cc2Cl)c1-c1ccc(-c2cccnc2)cc1 [Compound 1-4] | 1330 | 11.2 | 118 | – | – | –
19 | Cc1c(C(=O)NN2CCCCC2)nn(-c2ccc(Cl)cc2Cl)c1-c1ccc(-c2ccccc2Cl)cc1 [Compound 1-3] | 1370 | 85.1 | 16 | – | – | –

Row | SMILES | Ki (CB2 receptor; [1]) [nM] | Ki (CB1 cannabinoid receptor; [2]) [nM] | selectivity CB1 (CB1 cannabinoid receptor) | Ki (CB2 receptor; [3]) | selectivity CB2 (CB2 receptor) | Ki (CB1 cannabinoid receptor; [4])
20 | Cn1nnnc1-c1ccc(-c2c(CO)c(C(=O)NC3CCCCC3)nn2-c2ccc(Cl)cc2Cl)cc1 [Compound 2-11] | 122 | 118 | 1 | – | – | –
21 | Cc1c(C=Cc2ccccc2)nn(-c2ccc(Cl)cc2Cl)c1-c1ccc(Br)cc1 [Compound 1-24] | 10600 | 141 | 75.0 | – | – | –
22 | COCOCc1c(C(=O)NC2CCCCC2)nn(-c2ccc(Cl)cc2Cl)c1-c1ccc(Br)cc1 [Compound 1-13] | 54 | 15 | 3.6 | – | – | –
23 | Cc1c(NC(=O)NC23CC4CC(CC(C4)C2)C3)nn(-c2ccc(Cl)cc2Cl)c1-c1ccc(Br)cc1 [Compound 3-12] | 756 | 259 | 2.9 | – | – | –
24 | Cc1c(C(=O)NN2CCCCC2)nn(-c2ccc(Cl)cc2Cl)c1-c1ccc(C(N)=S)cc1 [Compound 3-25] | 127 | 86 | 1.5 | – | – | –
25 | COCc1c(C(=O)N(C)C2CCCCC2)nn(-c2ccc(Cl)cc2Cl)c1-c1ccc(Br)cc1 [Compound 1-29] | – | – | 7.5 | 2040 nM | – | 273 nM
26 | COCc1c(C(=O)NC2CCCCC2)nn(-c2ccc(Cl)cc2Cl)c1-c1ccc(-c2ccccn2)cc1 [Compound 1-20] | 277 | 51 | 5.4 | – | – | –
27 | N#Cc1ccc(-c2c(CO)c(C(=O)NN3CCCCC3)nn2-c2ccc(Cl)cc2Cl)cc1 [Compound 3-22] | 2740 | 64 | 42.8 | – | – | –
28 | COCc1c(C(=O)NC2CCCCC2)nn(-c2ccc(Cl)cc2Cl)c1-c1ccc(-c2ccsc2)cc1 [Compound 1-17] | 968 | 241 | 4.0 | – | – | –
29 | O=C(NN1CCCCC1)c1nn(-c2ccc(-c3cccnc3)cc2Cl)c(-c2ccc(-c3cccnc3)cc2)c1CO [Compound 3-19] | 1920 | 146 | 13.2 | – | – | –
30 | CCCCCC=Cc1nn(-c2ccc(Cl)cc2Cl)c(-c2ccc(Br)cc2)c1C [Compound 1-26] | – | 7680 | 6.9 | 52900 nM | – | –
31 | O=C(NN1CCCCC1)c1nn(-c2ccc(Cl)cc2Cl)c(-c2ccc(-c3cccnc3)cc2)c1CF [Compound 1-6] | 1930 | 15.1 | 128 | – | – | –
32 | Cc1c(NC(=O)NC2CCCCC2)nn(-c2ccc(Cl)cc2Cl)c1-c1ccc(-c2cccnc2)cc1 [Compound 2-22] | 10900 | 29 | 374.6 | – | – | –
33 | Cn1nnnc1-c1ccc(-c2c(CO)c(C(=O)NN3CCCCC3)nn2-c2ccc(Cl)cc2Cl)cc1 [Compound 2-5] | 2130 | 203 | 10.5 | – | – | –
34 | Cc1c(C(=O)NC2CC3CCC2(C)C3(C)C)nn(CCCCCCl)c1-c1ccccc1 (centres unmarked) [Compound 4-1] | – | – | – | 2.51 nM and 2.5 nM | 2.4 | 5.9 nM and 6 nM
35 | Cc1c(C(=O)NC2C3CC4CC(C3)CC2C4)nn(CCCCCCl)c1-c1ccccc1 (centres unmarked) [Compound 4-4] | – | – | – | 8.46 nM and 8.5 nM | – | 7.64 nM and 7.6 nM
36 | O=C(NC12CC3CC(CC(C3)C1)C2)c1cc(-c2ccccc2)n(CCCCCCl)n1 [Compound 4-6] | – | – | – | 4.79 nM and 4.8 nM | 2.5 | 12.2 nM and 12 nM
37 | COCOCc1c(C(=O)N2CCCCC2)nn(-c2ccc(Cl)cc2Cl)c1-c1ccc(Br)cc1 [Compound 1-14] | – | 395 | 7.8 | 3100 nM | – | –
38 | Cc1c(C=CC23CC4CC(CC(C4)C2)C3)nn(-c2ccc(Cl)cc2Cl)c1-c1ccc(Br)cc1 [Compound 1-25] | 4010 | 17700 | – | – | 4.4 | –
